Results published in the supplement of paper PMC10307832.

Legend:
Assay in all cases: relative viability (nuclei count vs DMSO), 5 days (fraction); higher = more cells survive
[1] = compound: COc1cc([C@@H]2c3cc4c(cc3[C@@H](O[C@@H]3O[C@@H]5CO[C@@H](C)O[C@H]5[C@H](O)[C@H]3O)[C@H]3COC(=O)[C@H]23)OCO4)cc(OC)c1O [Etoposide] + O=C(c1cc(Cc2n[nH]c(=O)c3ccccc23)ccc1F)N1CCN(C(=O)C2CC2)CC1 [Olaparib] (partner 8 µM)
Outline: (§1)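 Lung cancer cell lines were seeded in 1536-well plates and dosed by pin tool the next day, with either a single drug or a fixed anchor-drug dose combined with five library-drug doses (not always all listed) spaced in √10 steps. Five days later, one step fixed the cells and stained their nuclei (final 0.05% Triton X-100, 1% formaldehyde, 1 ug/ml Hoechst), and nuclei were counted on 4× images. Relative viability is the nuclei count in treated wells divided by the count in vehicle wells, and each value is the median of duplicate plates.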

[2] = compound: COc1cc([C@@H]2c3cc4c(cc3[C@@H](O[C@@H]3O[C@@H]5CO[C@@H](C)O[C@H]5[C@H](O)[C@H]3O)[C@H]3COC(=O)[C@H]23)OCO4)cc(OC)c1O [Etoposide] + COc1cccc2cc(-c3nc([C@H]4CC[C@H](C(=O)O)CC4)n4ncnc(N)c34)[nH]c12 [OSI-027] (partner 0.5 µM)
Outline: as §1

[3] = compound: COc1cc([C@@H]2c3cc4c(cc3[C@@H](O[C@@H]3O[C@@H]5CO[C@@H](C)O[C@H]5[C@H](O)[C@H]3O)[C@H]3COC(=O)[C@H]23)OCO4)cc(OC)c1O [Etoposide] + Nc1ncn([C@H]2C[C@H](O)[C@@H](CO)O2)c(=O)n1 [Decitabine] (partner 2 µM)
Outline: as §1

[4] = compound: CC1=C(N=C(N=C1N)[C@H](CC(=O)N)NC[C@@H](C(=O)N)N)C(=O)N[C@@H]([C@H](C2=CN=CN2)OC3C(C(C(C(O3)CO)O)O)OC4C(C(C(C(O4)CO)O)OC(=O)N)O)C(=O)N[C@H](C)[C@H]([C@H](C)C(=O)N[C@@H]([C@@H](C)O)C(=O)NCCC5=NC(=CS5)C6=NC(=CS6)C(=O)NCCC[S+](C)C)O [Bleomycin] + Nc1nc2[nH]cc(CCc3ccc(C(=O)N[C@@H](CCC(=O)O)C(=O)O)cc3)c2c(=O)[nH]1 [Pemetrexed] (partner 0.2 µM); conditions: main component drawn
Outline: as §1

NCI-H2126
relative viability ([1]; first compound 0.01 µM): 0.882 | relative viability ([1]; first compound 0.03162 µM): 0.938 | relative viability ([1]; first compound 0.1 µM): 0.658 | relative viability ([1]; first compound 0.3162 µM): 0.585 | relative viability ([1]; first compound 1 µM): 0.336 | relative viability ([2]; first compound 0.01 µM): 0.742 | relative viability ([2]; first compound 0.03162 µM): 0.662 | relative viability ([2]; first compound 0.3162 µM): 0.706 | relative viability ([2]; first compound 1 µM): 0.506 | relative viability ([3]; first compound 0.01 µM): 0.584 | relative viability ([3]; first compound 0.03162 µM): 0.636 | relative viability ([3]; first compound 0.1 µM): 0.486 | relative viability ([3]; first compound 0.3162 µM): 0.476 | relative viability ([3]; first compound 1 µM): 0.323 | relative viability ([4]; first compound 0.01 µM): 0.728 | relative viability ([4]; first compound 0.03162 µM): 0.774 | relative viability ([4]; first compound 0.1 µM): 0.629 | relative viability ([4]; first compound 0.3162 µM): 0.567 | relative viability ([4]; first compound 1 µM): 0.611

LK-2
relative viability ([1]; first compound 0.01 µM): 0.618 | relative viability ([1]; first compound 0.03162 µM): 0.81 | relative viability ([1]; first compound 0.1 µM): 0.511 | relative viability ([1]; first compound 0.3162 µM): 0.287 | relative viability ([1]; first compound 1 µM): 0.205 | relative viability ([2]; first compound 0.01 µM): 0.248 | relative viability ([2]; first compound 0.03162 µM): 0.214 | relative viability ([2]; first compound 0.1 µM): 0.185 | relative viability ([2]; first compound 0.3162 µM): 0.194 | relative viability ([2]; first compound 1 µM): 0.158 | relative viability ([3]; first compound 0.01 µM): 0.289 | relative viability ([3]; first compound 0.03162 µM): 0.302 | relative viability ([3]; first compound 0.1 µM): 0.159 | relative viability ([3]; first compound 0.3162 µM): 0.177 | relative viability ([3]; first compound 1 µM): 0.171 | relative viability ([4]; first compound 0.01 µM): 0.243 | relative viability ([4]; first compound 0.03162 µM): 0.252 | relative viability ([4]; first compound 0.1 µM): 0.204 | relative viability ([4]; first compound 0.3162 µM): 0.146 | relative viability ([4]; first compound 1 µM): 0.133

NCI-H1437
relative viability ([1]; first compound 0.01 µM): 0.597 | relative viability ([1]; first compound 0.03162 µM): 0.646 | relative viability ([1]; first compound 0.1 µM): 0.56 | relative viability ([1]; first compound 0.3162 µM): 0.394 | relative viability ([1]; first compound 1 µM): 0.323 | relative viability ([2]; first compound 0.01 µM): 1.04 | relative viability ([2]; first compound 0.03162 µM): 0.891 | relative viability ([2]; first compound 0.1 µM): 0.423 | relative viability ([2]; first compound 0.3162 µM): 0.635 | relative viability ([2]; first compound 1 µM): 0.31 | relative viability ([3]; first compound 0.01 µM): 0.537 | relative viability ([3]; first compound 0.03162 µM): 0.632 | relative viability ([3]; first compound 0.1 µM): 0.568 | relative viability ([3]; first compound 0.3162 µM): 0.441 | relative viability ([3]; first compound 1 µM): 0.332 | relative viability ([4]; first compound 0.01 µM): 0.347 | relative viability ([4]; first compound 0.03162 µM): 0.303 | relative viability ([4]; first compound 0.1 µM): 0.312 | relative viability ([4]; first compound 0.3162 µM): 0.288 | relative viability ([4]; first compound 1 µM): 0.316

COR-L23
relative viability ([1]; first compound 0.01 µM): 0.368 | relative viability ([1]; first compound 0.03162 µM): 0.294 | relative viability ([1]; first compound 0.1 µM): 0.375 | relative viability ([1]; first compound 0.3162 µM): 0.223 | relative viability ([1]; first compound 1 µM): 0.169 | relative viability ([2]; first compound 0.01 µM): 0.76 | relative viability ([2]; first compound 0.03162 µM): 0.741 | relative viability ([2]; first compound 0.1 µM): 0.436 | relative viability ([2]; first compound 0.3162 µM): 0.532 | relative viability ([2]; first compound 1 µM): 0.25 | relative viability ([3]; first compound 0.01 µM): 0.407 | relative viability ([3]; first compound 0.03162 µM): 0.471 | relative viability ([3]; first compound 0.1 µM): 0.337 | relative viability ([3]; first compound 0.3162 µM): 0.377 | relative viability ([3]; first compound 1 µM): 0.176 | relative viability ([4]; first compound 0.01 µM): 0.191 | relative viability ([4]; first compound 0.03162 µM): 0.203 | relative viability ([4]; first compound 0.1 µM): 0.193 | relative viability ([4]; first compound 0.3162 µM): 0.153 | relative viability ([4]; first compound 1 µM): 0.146

ABC-1
relative viability ([1]; first compound 0.01 µM): 0.79 | relative viability ([1]; first compound 0.03162 µM): 0.873 | relative viability ([1]; first compound 0.1 µM): 0.663 | relative viability ([1]; first compound 0.3162 µM): 0.607 | relative viability ([1]; first compound 1 µM): 0.443 | relative viability ([2]; first compound 0.01 µM): 0.529 | relative viability ([2]; first compound 0.03162 µM): 0.564 | relative viability ([2]; first compound 0.1 µM): 0.339 | relative viability ([2]; first compound 0.3162 µM): 0.361 | relative viability ([2]; first compound 1 µM): 0.179 | relative viability ([3]; first compound 0.01 µM): 1.08 | relative viability ([3]; first compound 0.03162 µM): 0.939 | relative viability ([3]; first compound 0.1 µM): 0.62 | relative viability ([3]; first compound 0.3162 µM): 0.619 | relative viability ([3]; first compound 1 µM): 0.52

SW 900
relative viability ([1]; first compound 0.01 µM): 0.913 | relative viability ([1]; first compound 0.03162 µM): 0.924 | relative viability ([1]; first compound 0.1 µM): 0.968 | relative viability ([1]; first compound 0.3162 µM): 0.359 | relative viability ([1]; first compound 1 µM): 0.224 | relative viability ([2]; first compound 0.01 µM): 0.448 | relative viability ([2]; first compound 0.03162 µM): 0.563 | relative viability ([2]; first compound 0.1 µM): 0.367 | relative viability ([2]; first compound 0.3162 µM): 0.333 | relative viability ([2]; first compound 1 µM): 0.129 | relative viability ([3]; first compound 0.01 µM): 0.443 | relative viability ([3]; first compound 0.03162 µM): 0.428 | relative viability ([3]; first compound 0.1 µM): 0.361 | relative viability ([3]; first compound 0.3162 µM): 0.297 | relative viability ([3]; first compound 1 µM): 0.269 | relative viability ([4]; first compound 0.01 µM): 0.469 | relative viability ([4]; first compound 0.03162 µM): 0.461 | relative viability ([4]; first compound 0.1 µM): 0.391 | relative viability ([4]; first compound 0.3162 µM): 0.2 | relative viability ([4]; first compound 1 µM): 0.191

PC-14
relative viability ([1]; first compound 0.01 µM): 0.239 | relative viability ([1]; first compound 0.03162 µM): 0.204 | relative viability ([1]; first compound 0.1 µM): 0.31 | relative viability ([1]; first compound 0.3162 µM): 0.135 | relative viability ([1]; first compound 1 µM): 0.123 | relative viability ([2]; first compound 0.01 µM): 0.815 | relative viability ([2]; first compound 0.03162 µM): 0.945 | relative viability ([2]; first compound 0.1 µM): 0.58 | relative viability ([2]; first compound 0.3162 µM): 0.587 | relative viability ([2]; first compound 1 µM): 0.275 | relative viability ([3]; first compound 0.01 µM): 0.242 | relative viability ([3]; first compound 0.03162 µM): 0.248 | relative viability ([3]; first compound 0.1 µM): 0.258 | relative viability ([3]; first compound 0.3162 µM): 0.182 | relative viability ([3]; first compound 1 µM): 0.103 | relative viability ([4]; first compound 0.01 µM): 0.113 | relative viability ([4]; first compound 0.03162 µM): 0.118 | relative viability ([4]; first compound 0.1 µM): 0.103 | relative viability ([4]; first compound 0.3162 µM): 0.0537 | relative viability ([4]; first compound 1 µM): 0.0242

NCI-H1648
relative viability ([1]; first compound 0.03162 µM): 0.885 | relative viability ([1]; first compound 0.1 µM): 0.758 | relative viability ([1]; first compound 0.3162 µM): 0.757 | relative viability ([1]; first compound 1 µM): 0.358 | relative viability ([2]; first compound 0.03162 µM): 0.269 | relative viability ([2]; first compound 0.1 µM): 0.253 | relative viability ([2]; first compound 0.3162 µM): 0.289 | relative viability ([2]; first compound 1 µM): 0.292 | relative viability ([3]; first compound 0.03162 µM): 0.513 | relative viability ([3]; first compound 0.1 µM): 0.454 | relative viability ([3]; first compound 0.3162 µM): 0.466 | relative viability ([3]; first compound 1 µM): 0.341 | relative viability ([4]; first compound 0.01 µM): 0.669 | relative viability ([4]; first compound 0.03162 µM): 0.614 | relative viability ([4]; first compound 0.1 µM): 0.508 | relative viability ([4]; first compound 0.3162 µM): 0.483 | relative viability ([4]; first compound 1 µM): 0.469
